The numbers were not newly measured in patent US20240366754A1, “PHARMACEUTICAL COMPOSITIONS FOR DELIVERY OF VIRAL ANTIGENS AND RELATED METHODS” (BioNTech SE, priority 2021, published 2024), which cites them from elsewhere.

Each structure is given as a SMILES string. Entries after “also recorded” stand apart in the source; their conditions may differ. Read-outs that look alike come from different tables or passages of the source.

One series deals with norovirus. As to conditions: in vivo.

`Nc1nc2c(ncn2COCCO)c(=O)[nH]1` [acyclovir]: the “Most common adverse effects” value by setting is: (Intravenous formulations) “phlebitis, acute renal; also recorded: failure, nausea,; also recorded: vomiting, rash”; (Oral formulations) “malaise, headache,; also recorded: nausea, vomiting”.
Turning to `CC(=O)OCC(CCn1cnc2cnc(N)nc21)COC(C)=O` [famciclovir], under “Oral formulations”, the “Most common adverse effects” value is “headache, nausea,; also recorded: fatigue, diarrhea”.
On to `O=C(O)P(=O)(O)O` [foscarnet], for which, for the setting “Intravenous formulations”, the “Most common adverse effects” value is “fever, headache,; also recorded: renal dysfunction,; also recorded: electrolyte; also recorded: abnormalities,; also recorded: nausea, vomiting; also recorded: diarrhea, anemia,; also recorded: granulocytopenia”.
Take `CC(=O)Oc1ccccc1C(=O)Nc1ncc([N+](=O)[O-])s1` [nitazoxanide]: the “effect on norovirus illness” value in the series with norovirus is given as “reduce the duration of illness”.
As to `CC(C)[C@H](N)C(=O)OCCOCn1cnc2c(=O)[nH]c(N)nc21` [valacyclovir], the “Most common adverse effects” value (Oral formulations) is “headache, nausea,; also recorded: abdominal pain”.
